Numbered stars: 1 amine (or outer) side, 2 acyl side, 3 side chain; on linkers, the order of the positions; unused ones are H or OH. Bridge positions count the residues as written; N and C are the ends. Square brackets hold non-standard residues; d marks the D form. Peptide text beside a SMILES is read from it. * marks the point of attachment. hPhe(3-Cl-4-CF3) = N[C@@H](CCc1ccc(C(F)(F)F)c(Cl)c1)C(=O)O; hPhe(3-F,4-CF3) = N[C@@H](CCc1ccc(C(F)(F)F)c(F)c1)C(=O)O; X123 = O=C([C@@H]1C[C@H](n2ccnn2)CN1[*:1])[*:2]; X31 = O=C([C@@H]1C[C@@H](n2ccnn2)CN1[*:1])[*:2]; NMeAla(cPent) = CN[C@@H](CC1CCCC1)C(=O)O; NMeCha = CN[C@@H](CC1CCCCC1)C(=O)O; cisHyp = O=C(O)[C@@H]1C[C@H](O)CN1; Hyp = O=C(O)[C@@H]1C[C@@H](O)CN1; NMeD = CN[C@@H](CC(=O)O)C(=O)O; Benzyl(4-Cl) = Clc1ccc(C*)cc1; NMeL = CN[C@@H](CC(C)C)C(=O)O; NMeV = CN[C@H](C(=O)O)C(C)C; Piperidide = C1CCN(*)CC1; X57 = FC(F)Oc1ccc(C*)cc1; Ac5c = NC1(C(=O)O)CCCC1; X106 = Clc1cccc(C*)c1; Sar = CNCC(=O)O
biological target: GTPase KRas (G12D) and Son of Sevenless Homolog 1 (SOS) (Homo sapiens, UniProt P01116, G12D); test: AlphaScreen Assay
Sequence (P01116 whole entry G12D): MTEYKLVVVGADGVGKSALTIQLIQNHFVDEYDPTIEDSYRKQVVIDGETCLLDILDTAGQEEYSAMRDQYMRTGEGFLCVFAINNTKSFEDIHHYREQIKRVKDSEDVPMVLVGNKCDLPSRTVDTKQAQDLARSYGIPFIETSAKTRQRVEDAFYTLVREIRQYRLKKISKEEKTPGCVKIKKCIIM
Sequence (Q07889 whole entry, further chain): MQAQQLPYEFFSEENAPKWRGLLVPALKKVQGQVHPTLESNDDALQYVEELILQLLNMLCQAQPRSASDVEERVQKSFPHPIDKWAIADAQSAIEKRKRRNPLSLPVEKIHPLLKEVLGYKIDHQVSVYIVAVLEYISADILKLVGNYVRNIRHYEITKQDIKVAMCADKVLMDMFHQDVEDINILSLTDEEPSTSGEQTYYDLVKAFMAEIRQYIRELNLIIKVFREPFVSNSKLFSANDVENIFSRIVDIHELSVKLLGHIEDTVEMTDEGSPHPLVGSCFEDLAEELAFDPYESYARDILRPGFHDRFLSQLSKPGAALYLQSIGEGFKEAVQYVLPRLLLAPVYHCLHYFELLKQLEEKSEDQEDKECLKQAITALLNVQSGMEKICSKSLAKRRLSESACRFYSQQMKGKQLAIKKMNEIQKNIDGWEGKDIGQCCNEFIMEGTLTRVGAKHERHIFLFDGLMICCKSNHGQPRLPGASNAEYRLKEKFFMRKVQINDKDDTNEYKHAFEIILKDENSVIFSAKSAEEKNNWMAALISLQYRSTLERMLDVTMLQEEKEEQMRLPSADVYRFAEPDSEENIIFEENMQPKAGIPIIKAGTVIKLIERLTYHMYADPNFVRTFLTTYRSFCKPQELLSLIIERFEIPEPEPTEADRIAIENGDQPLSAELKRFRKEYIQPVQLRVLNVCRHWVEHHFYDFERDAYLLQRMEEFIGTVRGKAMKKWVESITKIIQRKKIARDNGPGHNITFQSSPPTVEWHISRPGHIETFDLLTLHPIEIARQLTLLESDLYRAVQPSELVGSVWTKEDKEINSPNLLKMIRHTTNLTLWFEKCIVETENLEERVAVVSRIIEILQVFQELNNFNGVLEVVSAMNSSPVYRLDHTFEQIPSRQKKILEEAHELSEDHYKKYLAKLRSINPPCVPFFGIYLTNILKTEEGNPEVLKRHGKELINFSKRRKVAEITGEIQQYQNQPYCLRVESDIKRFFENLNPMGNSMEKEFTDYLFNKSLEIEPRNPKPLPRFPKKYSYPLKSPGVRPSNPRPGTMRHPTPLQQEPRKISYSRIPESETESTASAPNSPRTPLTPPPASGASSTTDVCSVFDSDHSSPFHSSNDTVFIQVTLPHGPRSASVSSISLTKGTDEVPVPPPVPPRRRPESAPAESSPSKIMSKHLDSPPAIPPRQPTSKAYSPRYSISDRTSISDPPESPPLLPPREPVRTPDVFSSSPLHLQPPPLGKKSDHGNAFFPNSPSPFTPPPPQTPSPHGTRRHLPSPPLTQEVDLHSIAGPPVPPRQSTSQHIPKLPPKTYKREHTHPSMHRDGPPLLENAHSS
Experimental: Protein-protein interaction inhibition (PPI) between Kras and SOS1 was measured by energy transfer from nickel-conjugated donor beads to streptavidin-conjugated acceptor beads using biotin-tagged human Kras expressed in E. coli and loaded with GDP after purification and His-tagged human SOS1 enzyme. This measurement utilizes the phenomenon in which donor beads are irradiated with light at 680 nm, such that energy is transferred to acceptor beads through singlet oxygen and light at 520-620 nm is detected from the acceptor beads.

IC50 [nM]	SMILES
0.47	CC[C@H](C)[C@@H]1NC(=O)[C@H](CC(C)C)N(C)C(=O)C[C@@H](C(=O)N2CCCCC2)N(C)C(=O)[C@H](C(C)C)N(C)C(=O)C2(CCCC2)NC(=O)[C@@H]2C[C@@H](n3ccnn3)CN2C(=O)[C@H](CCc2ccc(C(F)(F)F)c(Cl)c2)NC(=O)CN(C)C(=O)[C@H](CC2CCCC2)N(C)C(=O)CN(C)C(=O)CN(C)C1=O [US20240148821, Compound 2113] ([NMeL]I[Sar][Sar][NMeAla(cPent)][Sar][hPhe(3-Cl-4-CF3)][X31][Ac5c][NMeV][NMeD]-Piperidide; lactam N-11)
1.1	CC[C@H](C)[C@@H]1NC(=O)[C@H](CC(C)C)N(C)C(=O)C[C@@H](C(=O)N2CCCCC2)N(C)C(=O)[C@H](C(C)C)N(C)C(=O)C2(CCCC2)NC(=O)[C@@H]2C[C@H](n3ccnn3)CN2C(=O)[C@H](CCc2ccc(C(F)(F)F)c(Cl)c2)NC(=O)CN(C)C(=O)[C@H](CC2CCCC2)N(C)C(=O)CN(C)C(=O)CN(C)C1=O [US20240148821, Compound 2115] ([NMeL]I[Sar][Sar][NMeAla(cPent)][Sar][hPhe(3-Cl-4-CF3)][X123][Ac5c][NMeV][NMeD]-Piperidide; lactam N-11)
3.2	CCO[C@@H]1C[C@H]2C(=O)NC3(CCCC3)C(=O)N(C)[C@@H](CC(C)C)C(=O)N(C)[C@H](C(=O)N3CCCCC3)CC(=O)N(C)[C@@H](CC(C)C)C(=O)N[C@@H]([C@@H](C)CC)C(=O)N(C)CC(=O)N(C)CC(=O)N(C)[C@@H](CC3CCCCC3)C(=O)N(C)CC(=O)N[C@@H](CCc3ccc(C(F)(F)F)c(F)c3)C(=O)N2C1 [US20240148821, Compound 2118] ([NMeL]I[Sar][Sar][NMeCha][Sar][hPhe(3-F,4-CF3)][Hyp](Et)[Ac5c][NMeL][NMeD]-Piperidide; lactam N-11)
4.5	CCO[C@H]1C[C@H]2C(=O)NC3(CCCC3)C(=O)N(C)[C@@H](CC(C)C)C(=O)N(C)[C@H](C(=O)N3CCCCC3)CC(=O)N(C)[C@@H](CC(C)C)C(=O)N[C@@H]([C@@H](C)CC)C(=O)N(C)CC(=O)N(C)CC(=O)N(C)[C@@H](CC3CCCCC3)C(=O)N(C)CC(=O)N[C@@H](CCc3ccc(C(F)(F)F)c(F)c3)C(=O)N2C1 [US20240148821, Compound 2127] ([NMeL]I[Sar][Sar][NMeCha][Sar][hPhe(3-F,4-CF3)][cisHyp](Et)[Ac5c][NMeL][NMeD]-Piperidide; lactam N-11)
15	CC[C@H](C)[C@@H]1NC(=O)[C@H](CC(C)C)N(C)C(=O)C[C@@H](C(=O)N2CCCCC2)N(C)C(=O)[C@H](CC(C)C)N(C)C(=O)C2(CCCC2)NC(=O)[C@@H]2C[C@@H](OCc3ccc(OC(F)F)cc3)CN2C(=O)[C@H](CCc2ccc(C(F)(F)F)c(F)c2)NC(=O)CN(C)C(=O)[C@H](CC2CCCCC2)N(C)C(=O)CN(C)C(=O)CN(C)C1=O [US20240148821, Compound 2128] ([NMeL]I[Sar][Sar][NMeCha][Sar][hPhe(3-F,4-CF3)][Hyp](X57)[Ac5c][NMeL][NMeD]-Piperidide; lactam N-11)
46	CC[C@H](C)[C@@H]1NC(=O)[C@H](CC(C)C)N(C)C(=O)C[C@@H](C(=O)N2CCCCC2)N(C)C(=O)[C@H](CC(C)C)N(C)C(=O)C2(CCCC2)NC(=O)[C@@H]2C[C@H](OCc3ccc(Cl)cc3)CN2C(=O)[C@H](CCc2ccc(C(F)(F)F)c(F)c2)NC(=O)CN(C)C(=O)[C@H](CC2CCCCC2)N(C)C(=O)CN(C)C(=O)CN(C)C1=O [US20240148821, Compound 2129] ([NMeL]I[Sar][Sar][NMeCha][Sar][hPhe(3-F,4-CF3)][cisHyp](Benzyl(4-Cl))[Ac5c][NMeL][NMeD]-Piperidide; lactam N-11)

SMILES	IC50 [nM]
CC[C@H](C)[C@@H]1NC(=O)[C@H](CC(C)C)N(C)C(=O)C[C@@H](C(=O)N2CCCCC2)N(C)C(=O)[C@H](CC(C)C)N(C)C(=O)C2(CCCC2)NC(=O)[C@@H]2C[C@H](OCc3cccc(Cl)c3)CN2C(=O)[C@H](CCc2ccc(C(F)(F)F)c(F)c2)NC(=O)CN(C)C(=O)[C@H](CC2CCCCC2)N(C)C(=O)CN(C)C(=O)CN(C)C1=O [US20240148821, Compound 2126] ([NMeL]I[Sar][Sar][NMeCha][Sar][hPhe(3-F,4-CF3)][cisHyp](X106)[Ac5c][NMeL][NMeD]-Piperidide; lactam N-11)	37

Source: BindingDB's records for patent US20240148821 (Chugai Seiyaku Kabushiki Kaisha, 2024)
